# Experimental data taken from patent US12655101B2, “Small molecules with antibacterial activity” (NEW MEXICO TECH UNIVERSITY RESEARCH PARK CORPORATION, priority 2021, dated 2026).
# Where two headings read alike, the source gives them in different places.
# Tests used:
# Type in all cases: cell-based
# [1] = system: RecA-GFP fusion protein in E. coli MG1655; test: Inhibition of norfloxacin-triggered RecA-GFP induction in E. coli MG1655
# Method: An increase in DNA damage-induced RecA protein expression is required for identification and repair of DNA lesions. LexA-repressed transcription of a norfloxacin-triggered SOS response was measured by detecting an increase in RecA-GFP fusion protein fluorescence in an E. coli recombinant model. The compounds of the disclosure inhibited RecA-GFP induction and presumably, the concurrent SOS response. Inhibition of RecA-GFP expression correlated with an increase in cell death, most likely as a result of ALD activation. Sub-potent concentrations of Polymixin E were used to facilitate entry of the compounds into cells.
# E. coli MG1655 was grown from a glycerol stock by placing a small volume of cells onto a MHA plate. The MHA plate was incubated overnight at 37° C. A single colony was subsequently used to inoculate MHB+10 μg/mL kanamycin to obtain a bacterial broth suspension. This was grown in at 37° C. on a rotary shaking incubator (100 rpm) for 12 hours. The bacterial cell concentration was adjusted to ˜5×10^5 colony forming units per milliliter (CFU/mL) in MHB using optical density at 595 nm. Treated cells with polymyxin E (PME) or norfloxacin (in μg/ml) at indicated concentrations for 30 minutes at 37° C. and then added a compound of the disclosure at indicated micromolar concentrations. Incubated for 3.5 hours at 37° C. Cell samples were read on the flow cytometer to detect (green fluorescent) RLU RecA expression and/or shutdown.
# E. coli MG1655 was grown from a glycerol stock by placing a small volume of cells onto a MHA plate. The MHA plate was incubated overnight at 37° C. A single colony was subsequently used to inoculate MHB+10 μg/mL kanamycin to obtain a bacterial broth suspension. The MHB broth suspension was grown at 37° C. on a rotary shaking incubator (100 rpm) for 12 hours. The bacterial cell concentration was adjusted to ˜5×10^5 CFU/mL in MHB using OD at 595 nm.
# Cells were treated with 0.03 μg/mL and 0.06 μg/mL norfloxacin for 30 minutes at 37° C. Then, 100 μM of the compounds were added. The cells were incubated for 3.5 hours at 37° C. 200 μL aliquots were removed and read by a flow cytometer to detect RecA production and/or shutdown. The cells were incubated for an additional 18 hours at 37° C. to assess overall toxicity.
# [2] = system: drug-resistant A. baumannii strains obtained from the CDC and Prevention Antimicrobial Isolate Bank; test: MIC on drug-resistant A. baumannii strains from the CDC Antimicrobial Isolate Bank; settings: Acinetobacter baumannii, 18 h, 18 hours
# A. baumannii ATCC 1515 = test: Membrane depolarization detected by DiOC2(3); settings: 1xMIC; 10, 20, 30, and 50 minutes
# A. baumannii ATCC 15151 [3] = test: MIC on A. baumannii ATCC 15151; settings: Acinetobacter baumannii, ATCC15151; A. baumannii ATCC 15151 (heading of Example 9)
# A. baumannii = test: Synergy with PME (Table 7)
# [4] = system: A. baumannii ATCC BAA-1797; test: Colony counts of A. baumannii ATCC BAA-1797 treated with 4xMIC for 16 hours
# HeLa cells [5] = test: HeLa cell toxicity IC50 (MTT); settings: Homo sapiens, 10% FBS
# Method: HeLa cells: HeLa cells were trypsinized and counted in number of cells/mL using a hemocytometer. Cells were then plated at 4×10^3 HeLa cells/100 μL in tissue culture-treated 96-well plates in DMEM+1% penicillin/streptomycin (P/S)+10% FBS. HeLa cells were treated with 100 μM of a compound of interest and serially diluted two-fold. Samples were also prepared with no treatment, 1% DMSO, and 100 μM PAO. The cells were incubated for 48 hours at 37° C. in a humidified incubator with 5% CO2. 10% v/v MTT reagent (5 mg/mL stock) was added to each sample, and the samples were incubated for 2 hours before removing the supernatant and solubilizing the samples in 100 μL DMSO. OD readings were obtained at 595 nm. IC50 values were reported.
# HeLa cells [6] = test: HeLa cell toxicity IC50 (MTT); settings: Homo sapiens
# [7] = system: A. baumannii ATCC BAA-1797; test: MIC on A. baumannii ATCC BAA-1797; settings: Acinetobacter baumannii
# In short: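 Cells adjusted to ~5×10^5 CFU/mL in MHB or MHB with 10%, 20% or 40% FBS, treated with two-fold serial compound dilutions in glass tubes and incubated 18 hours at 37° C. Growth read visually or by MTT (10% v/v, 10 min) with OD at 595 nm.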
# A. baumannii ATCC 15151 [8] = test: ATP decrease (luciferase); settings: 1xMIC and 2xMIC; 25 minutes
smiles,measurement,setting,value
"Cl.Fc1ccc(N/N=C/c2c[nH]c3cccc(OCc4ccccc4)c23)cc1 [Compound 27, (E)-2-((4-(benzyloxy)-1H-indol-3-yl)methylene)-1-(4-fluorophenyl)hydrazin-1-ium]",RecA attenuation with norflox on E. coli,[1],Yes
same,MIC,"[2]; A. baumannii CDC AR033, read-out: MIC values for AR033",25 µM
same,MIC,"[2]; A. baumannii CDC AR083, read-out: MIC values for AR083",12.5 µM
same,cell membrane depolarization over time,A. baumannii ATCC 1515,caused the most depolarization
same,MIC,A. baumannii ATCC 15151 [3],12.5 µM
same,Synergize with PME?,A. baumannii,"Yes, at 6 μM"
same,Kill at 4X MIC at 16 hours,[4]; 4X MIC,5-logs
same,kill of A. baumannii ATCC BAA-1797,"[4]; 4xMIC (24 μM Compound 25, 24 μM Compound 26, 100 μM Compound 27, 48 μM Compound 14, 100 μM Compound 15)",~5 orders of magnitude
same,IC50,"HeLa cells [5]; HeLa, Table 7, read-out: IC50 on HeLa in 10% FBS",25.8 ± 5.2 µM
same,IC50,"HeLa cells [5]; HeLa cells, read-out: IC50 10% FBS",25.8 ± 5.2 µM
same,IC50,"HeLa cells [6]; HeLa, read-out: IC50 on HeLa in 40% FBS, Table 7",69.7 µM
same,IC50,"HeLa cells [6]; read-out: IC50 40% FBS, HeLa cells",69.7 µM
same,MIC,"[7]; ATCC 1797 / ATCC BAA-1797, 0% FBS, read-out: MIC (μM) in MDR A. baumannii ATCC 1797 0% FBS",12.5 µM
same,MIC,"[7]; ATCC 1797 / ATCC BAA-1797, 10% FBS, read-out: MIC (μM) in MDR A. baumannii ATCC 1797 10% FBS",> 100 µM
same,MIC,"[7]; ATCC 1797 / ATCC BAA-1797, read-out: MIC (μM) in MDR A. baumannii ATCC 1797 40% FBS, 40% FBS",50 µM
same,MIC,"[7]; ATCCBAA1797, 18 h, read-out: MIC in the presence of 40% FBS, A. baumannii ATCC BAA-1797, 40% FBS",25 µM
same,MIC,"[7]; ATCCBAA1797, A. baumannii ATCC BAA-1797, absence of serum, read-out: MIC in the absence of serum",5 µM
same,MIC,"[7]; ATCCBAA1797, Table 7, 10% FBS, read-out: MIC in 10% FBS",> 100 µM
same,MIC,"[7]; ATCCBAA1797, Table 7, no serum stated, read-out: MIC",12.5 µM
same,MIC,"[7]; ATCCBAA1797, read-out: MIC in 40% FBS (μM), Table 7, 40% FBS",50 µM
same,ATP decrease,A. baumannii ATCC 15151 [8],caused a decrease in ATP
